Test results: patent publication US20260103471A1, “CYCLIC UREA THIAZOLYL COMPOUNDS FOR TREATMENT OF HSV” (Assembly Biosciences, Inc., priority 2022, published 2026)
Where two headings read alike, the source gives them in different places.

How the values were obtained:
HSV-2 G strain = assay: HSV-2 Antiviral Assay (Vero cells, cell viability); format: cell-based; details: Human alphaherpesvirus 2, Vero, 120 h, Vero cells, 160 TCID50 HSV-2 G strain, 5 days, cell viability
How it was run: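 Vero cells (1.0×10^4/well, attached overnight) given 8-point 3-fold compound dilutions (0.5% DMSO) then infected with 160 TCID50 HSV-2 G strain in 2% FBS medium for 5 days at 37 °C. Protection read as cell viability by WST-8 absorbance at 460 and 620 nm after 3 h.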

HSV-1 = HSV-1 Antiviral Assay (Vero cells, cell viability); format: cell-based; details: read-out: HSV-1 EC50
Description: Vero cells were cultured in Dulbecco's Modified Eagle Medium (DMVEM) supplemented with […] and 100 units/mL penicillin and streptomycin. The cells were passaged 2-3 times per week to maintain sub-confluent densities.
Vero cells were seeded into 96-well plates at a density of 2.5×10^3 cells per well and allowed to attach overnight. Following attachment, the media was replaced with 50 μL of infection medium (DMVEM supplemented with 2% fetal bovine serum and 100 units/mL penicillin and streptomycin). A Tecan D300e digital dispenser was then used to add compounds to the culture using an 8-point 3-fold serial dilution format. The DMSO concentration was normalized to 0.5% for all treatments. Following compound addition, 50 μL of infection medium containing 80 TCID50 HSV-1 was added to the cells and incubated at 37° C. for 4 days. After the incubation, the plates were equilibrated to room temperature, the media was removed, and […] a 1:1 dilution of Cell titer glow and phosphate buffered saline was added to the cells. Following a 5-minute incubation, cell viability was quantified by measuring luminance using a Tecan Infinite M1000 Pro plate reader.

[1] = Human alphaherpesvirus 1, 96 h, Vero cells, 80 TCID50 HSV-1, 4 days, cell viability

| Compound | EC50 (HSV-2 G strain) | EC50 (HSV-1; [1]) | EC50 (HSV-1; Human alphaherpesvirus 1, Vero, 96 h) |
| --- | --- | --- | --- |
| Cc1nc(N2CCCN([C@H](C)c3cccc(-c4ccccc4F)c3)C2=O)sc1S(N)(=O)=O (single isomer, unassigned) [Compound 178] | 1000 to 5000 nM | 1000 to 5000 nM | – |
| Cc1nc(N2CCCN(c3ccc(-c4nc5ccccc5s4)cc3)C2=O)sc1S(N)(=O)=O [Compound 88] | 1000 to 5000 nM | 100 to 1000 nM | – |
| Cc1nc(N2CCCN(c3ccc(-c4nccs4)cc3)C2=O)sc1S(=O)(=O)NC1CC1 [Compound 127] | < 100 nM | < 100 nM | – |
| CNS(=O)(=O)c1sc(N2CCCN(c3ccc(-c4cccc(N)n4)cc3)C2=O)nc1C [Compound 123] | < 100 nM | < 100 nM | – |
| Cc1nc(N2C[C@H](C)CN(c3ccc(-c4ccccc4F)cc3)C2=O)sc1S(N)(=O)=O [Compound 316] | < 100 nM | < 100 nM | – |
| NS(=O)(=O)c1sc(N2CCCN(c3ccc(-c4cc(F)ccc4F)cc3)C2=O)nc1Cl [Compound 171] | < 100 nM | < 100 nM | – |
| Cc1nc(N2CCCN(c3ccc(-c4cc(F)ccc4C(F)F)cc3)C2=O)sc1S(N)(=O)=O [Compound 194] | < 100 nM | < 100 nM | – |
| CNS(=O)(=O)c1sc(N2CCCN(Cc3cccc(-c4ccccc4)c3)C2=O)nc1C [Compound 182] | < 100 nM | < 100 nM | – |
| Cc1nc(N2CCCN(c3ccc(-c4cc(F)cc(F)n4)cc3)C2=O)sc1S(N)(=O)=O [Compound 235, 2-(3-(4-(4,6-difluoropyridin-2-yl)phenyl)-2-oxotetrahydropyrimidin-1(2H)-yl)-4-methylthiazole-5-sulfonamide] | < 100 nM | < 100 nM | – |
| Cc1nc(N2CCCN(c3ccc(-c4ccccc4F)c(F)c3)C2=O)sc1S(=O)(=O)NC1CC1 [Compound 133] | < 100 nM | < 100 nM | – |
| Cc1nc(N2CCCCN(c3ccc(-c4ccccn4)cc3)C2=O)sc1S(N)(=O)=O [Compound 103] | < 100 nM | < 100 nM | – |
| COc1ccc(F)c(-c2ccc(N3CCCN(c4nc(C)c(S(N)(=O)=O)s4)C3=O)cc2)c1 [Compound 26] | < 100 nM | < 100 nM | – |
| Cc1nc(N2CCCN(c3ccc(-c4cccc5ncsc45)cc3)C2=O)sc1S(N)(=O)=O [Compound 67, 2-(3-(4-(Benzo[d]thiazol-7-yl)phenyl)-2-oxotetrahydropyrimidin-1(2H)-yl)-4-methylthiazole-5-sulfonamide] | < 100 nM | < 100 nM | – |
| Cc1nc(N2CCCN(c3ccc(-c4ccccn4)c(F)c3)C2=O)sc1S(N)(=O)=O [Compound 97] | < 100 nM | < 100 nM | – |
| Cc1nc(N2CCCN(c3cc(F)c(-c4ccccc4)cc3F)C2=O)sc1S(N)(=O)=O [Compound 99, 2-(3-(2,5-Difluoro-[1,1′-biphenyl]-4-yl)-2-oxotetrahydropyrimidin-1(2H)-yl)-4-methylthiazole-5-sulfonamide] | < 100 nM | < 100 nM | – |
| Cc1nc(N2CCCN(c3ccc(-c4ccccc4F)cc3F)C2=O)sc1S(=O)(=O)NC1CC1 [Compound 131] | 100 to 1000 nM | 100 to 1000 nM | – |
| CNS(=O)(=O)c1sc(N2CCCN(c3ccc(-c4ccccn4)cc3)C2=O)nc1C [Compound 118] | < 100 nM | < 100 nM | – |
| CNS(=O)(=O)c1sc(N2CCCN(c3ccc(-c4cc(F)ccc4F)cc3)C2=O)nc1C [Compound 116, 2-(3-(2′,5′-Difluoro-[1,1′-biphenyl]-4-yl)-2-oxotetrahydropyrimidin-1(2H)-yl)-N,4-dimethylthiazole-5-sulfonamide] | < 100 nM | < 100 nM | – |
| Cc1nc(N2CCCN(c3ccc(-c4cc(Br)ccc4F)cc3)C2=O)sc1S(N)(=O)=O [Compound 25] | < 100 nM | < 100 nM | – |
| CNS(=O)(=O)c1sc(N2CCCCN(c3ccc(-c4ccccn4)cc3)C2=O)nc1C [Compound 138] | < 100 nM | < 100 nM | – |
| Cc1nc(N2CCCN(c3ccc(-c4cccc5c4cnn5CC(C)(C)O)cc3)C2=O)sc1S(N)(=O)=O [Compound 60] | 1000 to 5000 nM | 1000 to 5000 nM | – |
| NS(=O)(=O)c1sc(N2CCCN(c3ccc(-c4cc(F)ccc4F)cc3)C2=O)nc1C(F)(F)F [Compound 169, 2-(3-(2′,5′-Difluoro-[1,1′-biphenyl]-4-yl)-2-oxotetrahydropyrimidin-1(2H)-yl)-4-(trifluoromethyl) thiazole-5-sulfonamide] | – | < 100 nM | – |
| Cc1nc(N2CCCN(c3ccc(-c4ccccn4)c(F)c3)C2=O)sc1S(=O)(=O)NC1CC1 [Compound 129] | – | 100 to 1000 nM | – |
| Cc1nc(N2CCCN(c3ccc(-c4cc(F)ccc4F)cc3)C2=O)sc1S(=O)(=O)C(C)C [Compound 162, 1-(2′,5′-Difluoro-[1,1′-biphenyl]-4-yl)-3-(5-(isopropylsulfonyl)-4-methylthiazol-2-yl) tetrahydropyrimidin-2(1H)-one] | – | 100 to 1000 nM | – |
| Cc1nc(N2CC3(CC3)CN(c3ccc(-c4ccccc4F)cc3)C2=O)sc1S(C)(=N)=O (stereo not shown) [Compound 158] | – | 100 to 1000 nM | – |
| Cc1nc(N2CC3(CC3)CN(c3ccc(-c4ccccc4F)cc3)C2=O)sc1[S@](C)(=N)=O (single isomer, unassigned) [Compound 159] | – | 100 to 1000 nM | – |

| Compound | EC50 (HSV-2 G strain) | EC50 (HSV-1; [1]) | EC50 (HSV-1; Human alphaherpesvirus 1, Vero, 96 h) |
| --- | --- | --- | --- |
| CC[S@@](=N)(=O)c1sc(N2CCCN(c3ccc(-c4cc(F)ccc4F)cc3)C2=O)nc1C (single isomer, unassigned) [Compound 149] | – | 100 to 1000 nM | – |
| Cc1nc(N2CCCN(c3ccc(-c4cc(F)ccc4F)cc3)C2=O)sc1S(=O)(=O)F [Compound 165] | – | – | 1000 to 5000 nM |
| Cc1nc(N2CCCN(c3ccc(-c4cccc5scnc45)cc3)C2=O)sc1S(N)(=O)=O [Compound 71, 2-(3-(4-(Benzo[d]thiazol-4-yl)phenyl)-2-oxotetrahydropyrimidin-1(2H)-yl)-4-methylthiazole-5-sulfonamide] | – | < 100 nM | – |
| Cc1nc(N2CCCN(c3ccc(-c4nc(C(F)(F)F)cs4)cc3)C2=O)sc1S(N)(=O)=O [Compound 46] | – | 100 to 1000 nM | – |
| Cc1nc(N2CCCN(c3ccc(-c4cccc5c4CC(=O)N5)cc3)C2=O)sc1S(N)(=O)=O [Compound 76] | – | 1000 to 5000 nM | – |
| Cc1nc(N2CCCN(c3ccc(-c4cc(F)ccc4F)cc3)C2=O)sc1S(=O)(=O)Nc1ccccc1 [Compound 134] | – | 100 to 1000 nM | – |
| CC[S@](=N)(=O)c1sc(N2CCCN(c3ccc(-c4cc(F)ccc4F)cc3)C2=O)nc1C (single isomer, unassigned) [Compound 150] | – | < 100 nM | – |
| Cc1nc(N2CCCN(c3ccc(-c4cc(F)ccc4F)cc3)C2=O)sc1S(C)(=N)=O (stereo not shown) [Compound 139, 1-(2′,5′-Difluoro-[1,1′-biphenyl]-4-yl)-3-(4-methyl-5-(S-methylsulfonimidoyl)thiazol-2-yl) tetrahydropyrimidin-2(1H)-one] | – | 100 to 1000 nM | – |
| CC(=O)NS(=O)(=O)c1sc(N2CCCN(c3ccc(-c4cc(F)ccc4F)cc3)C2=O)nc1C [Compound 137] | – | 1000 to 5000 nM | – |
| NS(=O)(=O)c1sc(N2CCCN(c3ccc(-c4ccccc4F)cc3)C2=O)nc1C(F)(F)F [Compound 170] | – | < 100 nM | – |
| Cc1nc(N2CC(C)(C)CN(c3ccc(-c4cc(F)ccc4F)cc3)C2=O)sc1S(N)(=O)=O [Compound 106] | – | < 100 nM | – |
| Cc1nc(N2CCCN(c3ccc(-c4cccc5c4ncn5C)cc3)C2=O)sc1S(N)(=O)=O [Compound 61] | – | 100 to 1000 nM | – |
| Cc1nc(N2CCCN(c3ccc(-c4cccc(N)n4)cc3)C2=O)sc1S(N)(=O)=O [Compound 33] | – | 100 to 1000 nM | – |
| CS(=O)(=O)c1cnc(N2CCCN(c3ccc(-c4cc(F)ccc4F)cc3)C2=O)s1 [Compound 167] | – | 100 to 1000 nM | – |
| Cc1nc(N2CCCN(c3ccc(-c4cccc5ncn(C)c45)cc3)C2=O)sc1S(N)(=O)=O [Compound 62] | – | 1000 to 5000 nM | – |
| Cc1nc(N2CCCN([C@@H](C)c3cccc(-c4ccccc4F)c3)C2=O)sc1S(N)(=O)=O (single isomer, unassigned) [Compound 179] | – | 1000 to 5000 nM | – |
| Cc1nc(N2CCCN(c3ccc(-n4ncc5ccccc54)cc3)C2=O)sc1S(N)(=O)=O [Compound 93] | – | < 100 nM | – |
| Cc1nc(N2CCCN(c3ccc(-c4nc5ccccc5o4)cc3)C2=O)sc1S(N)(=O)=O [Compound 87] | – | 1000 to 5000 nM | – |
| Cc1nc(N2CCCN(c3ccc(-c4cccc5cnn(C)c45)cc3)C2=O)sc1S(N)(=O)=O [Compound 63] | – | < 100 nM | – |
| Cc1nc(N2CCCN(c3ccc(-c4cc(F)ccc4F)cc3)C2=O)sc1S(=O)(=O)N1CCNCC1 [Compound 135] | – | 100 to 1000 nM | – |
| C#Cc1cc(F)c(-c2ccc(N3CCCN(c4nc(C)c(S(N)(=O)=O)s4)C3=O)cc2)cc1F [Compound 29] | – | 1000 to 5000 nM | – |
| CNS(=O)(=O)c1sc(N2CCCN(c3ccc(-c4cccc(NC(=O)OC(C)(C)C)n4)cc3)C2=O)nc1C [Compound 125] | – | 100 to 1000 nM | – |
| Cc1nc(N2CCCN(c3ccc(-c4cc(F)ccc4F)cc3)C2=O)sc1S(=O)(=O)N1CCOCC1 [Compound 136] | – | 100 to 1000 nM | – |
| Cc1nc(N2CCCN(c3ccc(-c4cccc5ccncc45)cc3)C2=O)sc1S(N)(=O)=O [Compound 83] | – | < 100 nM | – |
| Cc1nc(N2CCN(c3ccc(-c4cc(F)ccc4F)cc3)C2=O)sc1S(N)(=O)=O [Compound 104] | – | 1000 to 5000 nM | – |
| Cc1nc(N2CCCN(c3ccc(-c4ccccc4F)cc3)C2=O)sc1[S+](C)[O-] (stereo not shown) [Compound 168] | – | 100 to 1000 nM | – |
